What all share (experiment): relative viability (nuclei count vs DMSO), 5 days (fraction); higher = more cells survive
Compound in the experiment “Alpelisib + Pemetrexed”: Cc1nc(NC(=O)N2CCC[C@H]2C(N)=O)sc1-c1ccnc(C(C)(C)C(F)(F)F)c1 [Alpelisib] + Nc1nc2[nH]cc(CCc3ccc(C(=O)N[C@@H](CCC(=O)O)C(=O)O)cc3)c2c(=O)[nH]1 [Pemetrexed] (partner 0.2 µM)
In outline:
(§1)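 Medians of duplicate plates are given as relative viability. That measure is the nuclei count in treated wells divided by the count in vehicle wells. Counts were taken on 4× images of lung cancer cell lines in 1536-well plates, 5 days after pin-tool dosing the day after seeding with one drug alone or a fixed anchor-drug dose plus five library-drug doses (not always all listed) in √10 steps.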

Compound in the experiment “Alpelisib + Lapatinib”: Cc1nc(NC(=O)N2CCC[C@H]2C(N)=O)sc1-c1ccnc(C(C)(C)C(F)(F)F)c1 [Alpelisib] + CS(=O)(=O)CCNCc1ccc(-c2ccc3ncnc(Nc4ccc(OCc5cccc(F)c5)c(Cl)c4)c3c2)o1 [Lapatinib] (partner 2 µM)
Summed up: as §1

Compound in the experiment “Alpelisib + Luminespib”: Cc1nc(NC(=O)N2CCC[C@H]2C(N)=O)sc1-c1ccnc(C(C)(C)C(F)(F)F)c1 [Alpelisib] + CCNC(=O)c1noc(-c2cc(C(C)C)c(O)cc2O)c1-c1ccc(CN2CCOCC2)cc1 [Luminespib] (partner 0.01 µM)
In outline: as §1

Compound in the experiment “Vemurafenib + Luminespib”: CCCS(=O)(=O)Nc1ccc(F)c(C(=O)c2c[nH]c3ncc(-c4ccc(Cl)cc4)cc23)c1F [Vemurafenib] + CCNC(=O)c1noc(-c2cc(C(C)C)c(O)cc2O)c1-c1ccc(CN2CCOCC2)cc1 [Luminespib] (partner 0.01 µM)
Summed up:
as §1

Turning to UMC-11, the relative viability with Alpelisib + Pemetrexed (first compound 0.04 µM) worked out at 0.732; in the experiment with Alpelisib + Pemetrexed (first compound 0.1265 µM) it was 0.709; in the experiment with Alpelisib + Pemetrexed (first compound 0.4 µM) it was 0.844; with Alpelisib + Pemetrexed (first compound 1.265 µM), 0.699; with Alpelisib + Pemetrexed (first compound 4 µM), 0.692; with Alpelisib + Lapatinib (first compound 0.04 µM), 1.03. Moreover, the relative viability with Alpelisib + Lapatinib (first compound 0.1265 µM) came to 0.948; with Alpelisib + Lapatinib (first compound 0.4 µM), 1.01; with Alpelisib + Lapatinib (first compound 1.265 µM), 1.02; with Alpelisib + Lapatinib (first compound 4 µM), 0.875; in the experiment with Alpelisib + Luminespib (first compound 0.04 µM) it was 1.04; with Alpelisib + Luminespib (first compound 0.1265 µM), 1.05. Moreover, the relative viability in the experiment with Alpelisib + Luminespib (first compound 0.4 µM) was 1.06; with Alpelisib + Luminespib (first compound 1.265 µM), 0.766; in the experiment with Alpelisib + Luminespib (first compound 4 µM), 0.729; in the experiment with Vemurafenib + Luminespib (first compound 0.03162 µM) it was 0.916; with Vemurafenib + Luminespib (first compound 0.1 µM) it was 0.991; with Vemurafenib + Luminespib (first compound 0.3162 µM), 0.984. Further, in the experiment with Vemurafenib + Luminespib (first compound 1 µM), the relative viability was 0.941.

The values are drawn from the supplement of paper PMC10307832.
